Measurements published in patent US12404295B2, “(Hetero)aryl-methyl-thio-beta-D-galactopyranoside derivatives” (Idorsia Pharmaceuticals Ltd, priority 2019, dated 2025).
Like-named read-outs stand apart in the source and are kept apart here.

Tests used:
human Gal-3 (hGal-3) = human Gal-3 (hGal-3) (Homo sapiens (Human), UniProt P17931); test: competitive binding assay: biotinylated hGal-3 binding to microplate-adsorbed asialofetuin (ASF)
In short: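 Serially diluted compounds compete with biotinylated hGal-3 binding to adsorbed asialofetuin (3 hours, 4° C). After washing, streptavidin-peroxidase at 80 ng/mL for 1 hour at 4° C, with ABTS colour read-out. IC50 values are averaged over repeated runs.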

human Gal-1 (hGal-1) = human Gal-1 (hGal-1) (Homo sapiens (Human), UniProt P09382); test: competitive binding assay: biotinylated hGal-1 binding to microplate-adsorbed asialofetuin (ASF); conditions: Table 15; read-out: IC50 (Galectin-1 inhibition)
In short: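 Spectrophotometric competition readout: after compound and biotinylated hGal-1 (300-1000 ng/mL) sit 3 h at 4° C on adsorbed asialofetuin, streptavidin-peroxidase (1 h, 4° C) and ABTS reveal residual binding. Reported IC50 values are means of repeat runs.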

[1] = Table 5, read-out: IC50 (Gal-3 inhibition)
[2] = Gal-3 inhibition, binding of biotinylated hGal-3 to ASF, mean values, read-out: IC50
[3] = Table 10, 2-OMe-Gal inhibitors, read-out: IC50 (Gal-3 inhibition)

Chain of human Gal-3 (hGal-3) (P17931 whole entry): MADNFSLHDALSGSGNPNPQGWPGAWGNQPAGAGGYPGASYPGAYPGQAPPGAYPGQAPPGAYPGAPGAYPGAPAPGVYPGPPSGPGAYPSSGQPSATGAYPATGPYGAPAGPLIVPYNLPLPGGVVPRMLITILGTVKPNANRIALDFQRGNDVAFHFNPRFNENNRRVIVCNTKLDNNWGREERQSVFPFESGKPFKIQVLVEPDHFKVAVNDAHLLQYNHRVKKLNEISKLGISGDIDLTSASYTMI
Chain of human Gal-1 (hGal-1) (P09382 whole entry): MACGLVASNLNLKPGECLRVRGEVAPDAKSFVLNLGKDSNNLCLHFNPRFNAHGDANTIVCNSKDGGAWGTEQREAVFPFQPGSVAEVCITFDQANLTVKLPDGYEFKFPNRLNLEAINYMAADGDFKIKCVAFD

Compound	IC50 (human Gal-3 (hGal-3); [1]) [nM]	IC50 (human Gal-1 (hGal-1)) [nM]	IC50 (human Gal-3 (hGal-3); [2]) [nM]	IC50 (human Gal-3 (hGal-3); [3]) [nM]	IC50 (human Gal-3 (hGal-3); Table 9, 2-OMe-Gal inhibitors, read-out: IC50 (Gal-3 inhibition)) [nM]
Cc1ccccc1[C@@H](S[C@@H]1O[C@H](CO)[C@H](O)[C@H](n2cc(-c3cc(F)c(F)c(F)c3)nn2)[C@H]1O)C1(O)CC(C)C1 (stereo partly drawn) [Example 2.36.102R., (2S,3R,4S,5R,6R)-2-(((1R)-(1-Hydroxy-3-methylcyclobutyl)(o-tolyl)methyl)thio)-6-(hydroxymethyl)-4-(4-(3,4,5-trifluorophenyl)-1H-1,2,3-triazol-1-yl)tetrahydro-2H-pyran-3,5-diol]	440	3500	–	–	–
Cc1ccccc1[C@H](S[C@@H]1O[C@H](CO)[C@H](O)[C@H](n2cc(-c3cc(F)c(F)c(F)c3)nn2)[C@H]1O)C1(O)CC(C)C1 (stereo partly drawn) [Example 2.36.102S., (2S,3R,4S,5R,6R)-2-(((1S)-(1-Hydroxy-3-methylcyclobutyl)(o-tolyl)methyl)thio)-6-(hydroxymethyl)-4-(4-(3,4,5-trifluorophenyl)-1H-1,2,3-triazol-1-yl)tetrahydro-2H-pyran-3,5-diol]	7200	54200	–	–	–
Cc1ccccc1C(S[C@@H]1O[C@H](CO)[C@H](O)[C@H](n2cc(-c3cc(F)c(F)c(F)c3)nn2)[C@H]1O)C1(O)CC(C)C1C (stereo partly drawn) [Example 2.37.102., (2S,3R,4S,5R,6R)-2-(((1-Hydroxy-2,3-dimethylcyclobutyl)(o-tolyl)methyl)thio)-6-(hydroxymethyl)-4-(4-(3,4,5-trifluorophenyl)-1H-1,2,3-triazol-1-yl)tetrahydro-2H-pyran-3,5-diol]	560	5360	–	–	–
Cc1ccccc1C(S[C@@H]1O[C@H](CO)[C@H](O)[C@H](n2cc(-c3cc(F)c(F)c(F)c3)nn2)[C@H]1O)C1(O)CCCC1 (stereo partly drawn) [Example 2.38.102., (2S,3R,4S,5R,6R)-2-(((1-Hydroxycyclopentyl)(o-tolyl)methyl)thio)-6-(hydroxymethyl)-4-(4-(3,4,5-trifluorophenyl)-1H-1,2,3-triazol-1-yl)tetrahydro-2H-pyran-3,5-diol]	180	2900	–	–	–
Cc1ccccc1[C@@H](S[C@@H]1O[C@H](CO)[C@H](O)[C@H](n2cc(-c3cc(F)c(F)c(F)c3)nn2)[C@H]1O)C1(O)CCCC1 [Example 2.38.102R., (2S,3R,4S,5R,6R)-2-(((R)-(1-Hydroxycyclopentyl)(o-tolyl)methyl)thio)-6-(hydroxymethyl)-4-(4-(3,4,5-trifluorophenyl)-1H-1,2,3-triazol-1-yl)tetrahydro-2H-pyran-3,5-diol]	110	1800	–	–	–
Cc1ccccc1[C@H](S[C@@H]1O[C@H](CO)[C@H](O)[C@H](n2cc(-c3cc(F)c(F)c(F)c3)nn2)[C@H]1O)C1(O)CCCC1 [Example 2.38.102S., (2S,3R,4S,5R,6R)-2-(((S)-(1-Hydroxycyclopentyl)(o-tolyl)methyl)thio)-6-(hydroxymethyl)-4-(4-(3,4,5-trifluorophenyl)-1H-1,2,3-triazol-1-yl)tetrahydro-2H-pyran-3,5-diol]	2750	17000	–	–	–
OC[C@H]1O[C@@H](SC(c2ncccc2C(F)(F)F)C2(O)CCCC2)[C@H](O)[C@@H](n2cc(-c3cc(F)c(F)c(F)c3)nn2)[C@H]1O (some centres unmarked) [Example 2.38.125.]	–	760	130	–	–
OC[C@H]1O[C@@H](S[C@H](c2ncccc2C(F)(F)F)C2(O)CCCC2)[C@H](O)[C@@H](n2cc(-c3cc(F)c(F)c(F)c3)nn2)[C@H]1O [Example 2.38.125R., (2S,3R,4S,5R,6R)-2-(((R)-(1-Hydroxycyclopentyl)(3-(trifluoromethyl)pyridin-2-yl)methyl)thio)-6-(hydroxymethyl)-4-(4-(3,4,5-trifluorophenyl)-1H-1,2,3-triazol-1-yl)tetrahydro-2H-pyran-3,5-diol]	–	480	80	–	–
OC[C@H]1O[C@@H](S[C@@H](c2ncccc2C(F)(F)F)C2(O)CCCC2)[C@H](O)[C@@H](n2cc(-c3cc(F)c(F)c(F)c3)nn2)[C@H]1O [Example 2.38.125S., (2S,3R,4S,5R,6R)-2-(((S)-(1-Hydroxycyclopentyl)(3-(trifluoromethyl)pyridin-2-yl)methyl)thio)-6-(hydroxymethyl)-4-(4-(3,4,5-trifluorophenyl)-1H-1,2,3-triazol-1-yl)tetrahydro-2H-pyran-3,5-diol]	–	15100	5620	–	–
Cc1ccccc1C(S[C@@H]1O[C@H](CO)[C@H](O)[C@H](n2cc(-c3cc(F)c(F)c(F)c3)nn2)[C@H]1O)C1(O)CCCCC1 (stereo partly drawn) [Example 2.39.102., (2S,3R,4S,5R,6R)-2-(((1-Hydroxycyclohexyl)(o-tolyl)methyl)thio)-6-(hydroxymethyl)-4-(4-(3,4,5-trifluorophenyl)-1H-1,2,3-triazol-1-yl)tetrahydro-2H-pyran-3,5-diol]	90	1600	–	–	–
Cc1ccccc1[C@@H](S[C@@H]1O[C@H](CO)[C@H](O)[C@H](n2cc(-c3cc(F)c(F)c(F)c3)nn2)[C@H]1O)C1(O)CCCCC1 [Example 2.39.102R., (2S,3R,4S,5R,6R)-2-(((R)-(1-Hydroxycyclohexyl)(o-tolyl)methyl)thio)-6-(hydroxymethyl)-4-(4-(3,4,5-trifluorophenyl)-1H-1,2,3-triazol-1-yl)tetrahydro-2H-pyran-3,5-diol]	90	1140	–	–	–
Cc1ccccc1[C@H](S[C@@H]1O[C@H](CO)[C@H](O)[C@H](n2cc(-c3cc(F)c(F)c(F)c3)nn2)[C@H]1O)C1(O)CCCCC1 [Example 2.39.102S., (2S,3R,4S,5R,6R)-2-(((S)-(1-Hydroxycyclohexyl)(o-tolyl)methyl)thio)-6-(hydroxymethyl)-4-(4-(3,4,5-trifluorophenyl)-1H-1,2,3-triazol-1-yl)tetrahydro-2H-pyran-3,5-diol]	4540	24000	–	–	–
Cc1nc(C)c([C@@H](S[C@@H]2O[C@H](CO)[C@H](O)[C@H](n3cc(-c4cc(F)c(F)c(F)c4)nn3)[C@H]2O)C2(O)CCCCC2)nc1C [Example 2.39.119R., (2S,3R,4S,5R,6R)-2-(((R)-(1-Hydroxycyclohexyl) (3,5,6-trimethylpyrazin-2-yl)methyl)thio)-6-(hydroxymethyl)-4-(4-(3,4,5-trifluorophenyl)-1H-1,2,3-triazol-1-yl)tetrahydro-2H-pyran-3,5-diol]	70	730	–	–	–
Cc1nc(C)c([C@H](S[C@@H]2O[C@H](CO)[C@H](O)[C@H](n3cc(-c4cc(F)c(F)c(F)c4)nn3)[C@H]2O)C2(O)CCCCC2)nc1C [Example 2.39.119S., (2S,3R,4S,5R,6R)-2-(((S)-(1-Hydroxycyclohexyl) (3,5,6-trimethylpyrazin-2-yl)methyl)thio)-6-(hydroxymethyl)-4-(4-(3,4,5-trifluorophenyl)-1H-1,2,3-triazol-1-yl)tetrahydro-2H-pyran-3,5-diol]	3960	18900	–	–	–
Cc1conc1[C@@H](S[C@@H]1O[C@H](CO)[C@H](O)[C@H](n2cc(-c3cc(F)c(F)c(F)c3)nn2)[C@H]1O)C1(O)CCCCC1 [Example 2.39.120R., (2S,3R,4S,5R,6R)-2-(((R)-(1-Hydroxycyclohexyl)(4-methylisoxazol-3-yl)methyl)thio)-6-(hydroxymethyl)-4-(4-(3,4,5-trifluorophenyl)-1H-1,2,3-triazol-1-yl)tetrahydro-2H-pyran-3,5-diol]	200	610	–	–	–
CO[C@@H]1[C@@H](n2cc(-c3cc(F)c(F)c(F)c3)nn2)[C@@H](O)[C@@H](CO)O[C@H]1S[C@H](c1nocc1C)C1(O)CCCCC1 [Example 2.39.120R.I., (2R,3R,4S,5R,6S)-6-(((R)-(1-Hydroxycyclohexyl)(4-methylisoxazol-3-yl)methyl)thio)-2-(hydroxymethyl)-5-methoxy-4-(4-(3,4,5-trifluorophenyl)-1H-1,2,3-triazol-1-yl)tetrahydro-2H-pyran-3-ol]	–	560	–	250	–
CO[C@@H]1[C@@H](n2cc(-c3cc(F)c(F)c(F)c3)nn2)[C@@H](O)[C@@H](CO)O[C@H]1S[C@@H](c1nocc1C)C1(O)CCCCC1 [Example 2.39.120S.I., (2R,3R,4S,5R,6S)-6-(((S)-(1-Hydroxycyclohexyl)(4-methylisoxazol-3-yl)methyl)thio)-2-(hydroxymethyl)-5-methoxy-4-(4-(3,4,5-trifluorophenyl)-1H-1,2,3-triazol-1-yl)tetrahydro-2H-pyran-3-ol]	–	27300	–	12500	–
OC[C@H]1O[C@@H](S[C@H](c2ncccc2C(F)(F)F)C2(O)CCCCC2)[C@H](O)[C@@H](n2cc(-c3cc(F)c(F)c(F)c3)nn2)[C@H]1O [Example 2.39.125R., (2S,3R,4S,5R,6R)-2-(((R)-(1-Hydroxycyclohexyl)(3-(trifluoromethyl)pyridin-2-yl)methyl)thio)-6-(hydroxymethyl)-4-(4-(3,4,5-trifluorophenyl)-1H-1,2,3-triazol-1-yl)tetrahydro-2H-pyran-3,5-diol]	100	280	–	–	–
CO[C@@H]1[C@@H](n2cc(-c3cc(F)c(F)c(F)c3)nn2)[C@@H](O)[C@@H](CO)O[C@H]1S[C@H](c1ncccc1C(F)(F)F)C1(O)CCCCC1 [Example 2.39.125R.I., (2R,3R,4S,5R,6S)-6-(((R)-(1-Hydroxycyclohexyl)(3-(trifluoromethyl)pyridin-2-yl)methyl)thio)-2-(hydroxymethyl)-5-methoxy-4-(4-(3,4,5-trifluorophenyl)-1H-1,2,3-triazol-1-yl)tetrahydro-2H-pyran-3-ol]	–	460	–	–	90
